Test results from patent US20240342292A1, “Compounds for the Degradation of EGFR Kinase” (BeiGene Switzerland GmbH, priority 2021, published 2024).

Columns and labels:
Del19/T790M/C797S EGFR = assay: EGFR degradation HTRF assay in H1975-clone #28 (DTC) cells; format: cell-based; details: H1975 # 28 DTC (Del19/T790M/C797S), 16h treatment; for DC50: HTRF; for Dmax (%): maximum percentage of degradation
Procedure, shortened: (§1)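 Engineered H1975 lines (exogenous mutant EGFR, endogenous copies knocked out, single clones sequence-verified); 16 h compound, 37 °C/5% CO2, 0.2% DMSO; top 10 uM, 5-fold, 8 pts; lysis 1 h RT, HTRF antibodies overnight RT; 4-parameter logistic fit → DC50.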

L858R/T790M/C797S EGFR = molecular target: T1, L858R/T790M/C797S EGFR (Homo sapiens, UniProt P00533, C797S/L858R/T790M); assay: EGFR degradation HTRF assay in H1975-clone #25 (LTC) cells; format: cell-based; details: 16h treatment; for DC50: H1975 # 25-LTC (L858R/T790M/C797S), HTRF; for Dmax: NCI-H1975, H1975 # 25-LTC (L858R/T790M/C797S), maximum percentage of degradation
T1 construct: expressed in transfected cells; host or cells: H1975 clone #25 (lentiviral over-expression, endogenous EGFR knocked out by sgRNA)
Procedure, shortened: as §1

T1 sequence (P00533 25-1210 T790M/C797S/L858R): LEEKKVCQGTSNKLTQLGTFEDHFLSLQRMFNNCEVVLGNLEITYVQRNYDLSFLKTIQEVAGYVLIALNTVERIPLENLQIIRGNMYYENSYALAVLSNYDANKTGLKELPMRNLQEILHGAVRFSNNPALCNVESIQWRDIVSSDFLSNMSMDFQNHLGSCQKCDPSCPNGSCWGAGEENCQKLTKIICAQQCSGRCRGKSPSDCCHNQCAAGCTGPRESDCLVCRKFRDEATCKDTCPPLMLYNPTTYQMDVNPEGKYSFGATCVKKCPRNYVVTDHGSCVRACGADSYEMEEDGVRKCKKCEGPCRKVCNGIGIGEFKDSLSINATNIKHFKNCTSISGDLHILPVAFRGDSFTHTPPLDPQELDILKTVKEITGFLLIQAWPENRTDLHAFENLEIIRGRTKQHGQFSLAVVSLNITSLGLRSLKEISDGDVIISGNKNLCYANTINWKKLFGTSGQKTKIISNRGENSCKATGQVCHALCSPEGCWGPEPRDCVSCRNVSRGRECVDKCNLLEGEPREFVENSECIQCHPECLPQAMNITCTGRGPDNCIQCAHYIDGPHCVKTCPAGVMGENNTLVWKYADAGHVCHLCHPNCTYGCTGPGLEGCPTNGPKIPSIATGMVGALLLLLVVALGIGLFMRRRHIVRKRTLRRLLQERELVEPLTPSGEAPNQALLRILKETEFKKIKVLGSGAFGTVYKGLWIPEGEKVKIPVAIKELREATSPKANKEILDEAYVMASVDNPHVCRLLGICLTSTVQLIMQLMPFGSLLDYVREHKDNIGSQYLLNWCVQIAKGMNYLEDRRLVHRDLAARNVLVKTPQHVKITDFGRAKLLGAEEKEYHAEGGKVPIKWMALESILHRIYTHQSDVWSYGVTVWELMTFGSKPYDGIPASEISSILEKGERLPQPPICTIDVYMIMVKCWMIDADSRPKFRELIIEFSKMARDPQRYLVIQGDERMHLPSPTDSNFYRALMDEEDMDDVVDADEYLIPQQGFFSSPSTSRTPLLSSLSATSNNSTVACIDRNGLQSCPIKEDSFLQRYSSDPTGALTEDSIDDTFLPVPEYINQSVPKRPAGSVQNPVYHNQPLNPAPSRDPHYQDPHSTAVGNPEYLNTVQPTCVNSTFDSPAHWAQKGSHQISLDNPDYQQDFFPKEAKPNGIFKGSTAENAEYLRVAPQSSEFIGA

Compound: Cc1cc2cc(n1)-c1cnn(C)c1OCCC[C@@H](C)CN1/C(=N/C2=O)Nc2ccc(C(=O)N(C)[C@H]3CCN(CCc4cc(F)c([C@H]5CCC(=O)NC5=O)c(F)c4)CC3(F)F)cc21 [Example 251, (R,E)-N—((S)-1-(4-((R)-2,6-dioxopiperidin-3-yl)-3,5-difluorophenethyl)-3,3-difluoropiperidin-4-yl)-N,1^1,2^6,7-tetramethyl-3-oxo-5^2,5^3-dihydro-1^1H,5^1H-11-oxa-4-aza-5(2,1)-benzo[d]imidazola-2(2,4)-pyridina-1(4,5)-pyrazolacycloundecaphane-5^6-carboxamide]
- DC50 (Del19/T790M/C797S EGFR): 611 pM
- Dmax (%) (Del19/T790M/C797S EGFR): 80.86%
- DC50 (L858R/T790M/C797S EGFR): 888 pM
- Dmax (L858R/T790M/C797S EGFR): 85.5%

Compound: COC[C@H]1CN(C2CCN(c3cc(F)c([C@H]4CCC(=O)NC4=O)c(F)c3)CC2)CCN1c1ccc2c(c1)N1C[C@H](C)CCCOc3c(cnn3C)-c3cc(cc(C)n3)C(=O)/N=C/1N2 [Example 385, (R)-3-(2,6-difluoro-4-(4-((R)-3-(methoxymethyl)-4-((R,E)-1^1,2^6,7-trimethyl-3-oxo-5^2,5^3-dihydro-1^1H,5^1H-li-oxa-4-aza-5(2,1)-benzo[d]imidazola-2(2,4)-pyridina-1(4,5)-pyrazolacycloundecaphane-5^6-yl)piperazin-1-yl)piperidin-1-yl)phenyl)piperidine-2,6-dione]
- DC50 (Del19/T790M/C797S EGFR): 1580 pM
- Dmax (%) (Del19/T790M/C797S EGFR): 63.01%
- DC50 (L858R/T790M/C797S EGFR): 2630 pM
- Dmax (L858R/T790M/C797S EGFR): 82.3%

Compound: Cc1cc2cc(n1)-c1cnn(C)c1OCCC[C@@H](C)CN1/C(=N/C2=O)Nc2ccc(N3CCC(C(=O)N4CC(Nc5cc(F)c([C@H]6CCC(=O)NC6=O)c(F)c5)C4)CC3)cc21 [Example 404, (R)-3-(2,6-difluoro-4-((1-(1-((R,E)-1^1,2^6,7-trimethyl-3-oxo-5^2,5^3-dihydro-1^1H,5^1H-li-oxa-4-aza-5(2,1)-benzo[d]imidazola-2(2,4)-pyridina-1(4,5)-pyrazolacycloundecaphane-5^4-yl)piperidine-4-carbonyl)azetidin-3-yl)amino)phenyl)piperidine-2,6-dione]
- DC50 (Del19/T790M/C797S EGFR): 1690 pM
- Dmax (%) (Del19/T790M/C797S EGFR): 83.57%
- DC50 (L858R/T790M/C797S EGFR): 940 pM
- Dmax (L858R/T790M/C797S EGFR): 88.5%

Compound: Cc1cc2cc(n1)-c1cnn(C)c1OCCC[C@@H](C)CN1/C(=N/C2=O)Nc2ccc(CN3C4CCC3CN(C(=O)[C@@H]3CCN(c5cc(F)c([C@H]6CCC(=O)NC6=O)c(F)c5)C3)C4)cc21 [Example 187, (3R)-3-(2,6-difluoro-4-((3R)-3-(8-(((R,E)-1^1,2,7-trimethyl-3-oxo-5^2,5^3-dihydro-1^1H,5^1H-11-oxa-4-aza-5(2,1)-benzo[d]imidazola-2(2,4)-pyridina-1(4,5)-pyrazolacycloundecaphane-5^6-yl)methyl)-3,8-diazabicyclo[3.2.1]octane-3-carbonyl)pyrrolidin-1-yl)phenyl)piperidine-2,6-dione]
- DC50 (Del19/T790M/C797S EGFR): 1800 pM
- Dmax (%) (Del19/T790M/C797S EGFR): 80.62%
- DC50 (L858R/T790M/C797S EGFR): 1010 pM
- Dmax (L858R/T790M/C797S EGFR): 86.1%

Compound: Cc1cc2cc(n1)-c1cnn(C)c1OCCC[C@@H](C)CN1/C(=N/C2=O)Nc2ccc(N3CCN(CC4CN(c5cc(F)c([C@H]6CCC(=O)NC6=O)c(F)c5)C4)[C@@H](CO)C3)cc21 [Example 422, (R)-3-(2,6-difluoro-4-(3-(((R)-2-(hydroxymethyl)-4-((R,E)-1^1,2^6,7-trimethyl-3-oxo-5^2,5^3-dihydro-1^1H,5^1H-li-oxa-4-aza-5(2,1)-benzo[d]imidazola-2(2,4)-pyridina-1(4,5)-pyrazolacycloundecaphane-5^6-yl)piperazin-1-yl)methyl)azetidin-1-yl)phenyl)piperidine-2,6-dione]
- DC50 (Del19/T790M/C797S EGFR): 652 pM
- Dmax (%) (Del19/T790M/C797S EGFR): 83.55%
- DC50 (L858R/T790M/C797S EGFR): 856 pM
- Dmax (L858R/T790M/C797S EGFR): 92.2%

Compound: Cc1cc2cc(n1)-c1cnn(C)c1OCCC[C@@H](C)CN1/C(=N/C2=O)Nc2ccc(C(=O)N[C@H]3CCN(CCc4cc(F)c([C@H]5CCC(=O)NC5=O)c(F)c4)CC3(F)F)cc21 [Example 337, (R,E)-N—((S)-1-(4-((R)-2,6-dioxopiperidin-3-yl)-3,5-difluorophenethyl)-3,3-difluoropiperidin-4-yl)-1^12^6,7-trimethyl-3-oxo-5^2,5^3-dihydro-1^1H,5^1H-11-oxa-4-aza-5(2,1)-benzo[d]imidazola-2(2,4)-pyridina-1(4,5)-pyrazolacycloundecaphane-5^6-carboxamide]
- DC50 (Del19/T790M/C797S EGFR): 608 pM
- Dmax (%) (Del19/T790M/C797S EGFR): 79.69%
- DC50 (L858R/T790M/C797S EGFR): 535 pM
- Dmax (L858R/T790M/C797S EGFR): 92%

Compound: COc1cc2cc(n1)-c1cnn(C)c1OCCC[C@@H](C)CN1/C(=N/C2=O)Nc2ccc(N3CCN(C4CCN(c5cc(F)c([C@H]6CCC(=O)NC6=O)c(F)c5)CC4)CC3)cc21 [Example 453, (R)-3-(2,6-difluoro-4-(4-(4-((R,E)-2^6-methoxy-1^1,7-dimethyl-3-oxo-5^2,5^3-dihydro-1^1H,5^1H-11-oxa-4-aza-5(2,1)-benzo[d]imidazola-2(2,4)-pyridina-1(4,5)-pyrazolacycloundecaphane-5^6-yl)piperazin-1-yl)piperidin-1-yl)phenyl)piperidine-2,6-dione]
- DC50 (Del19/T790M/C797S EGFR): 1430 pM
- Dmax (%) (Del19/T790M/C797S EGFR): 82.83%
- DC50 (L858R/T790M/C797S EGFR): 3170 pM
- Dmax (L858R/T790M/C797S EGFR): 85.3%

Compound: Cc1cc2cc(n1)-c1cnn(C)c1OCCC[C@@H](C)CN1/C(=N/C2=O)Nc2ccc(N3C[C@H](C)N(C4CCN(c5cc(F)c([C@H]6CCC(=O)NC6=O)c(F)c5)CC4)C[C@H]3C)cc21 [Example 380, (R)-3-(4-(4-((2S,5R)-2,5-dimethyl-4-((R,E)-1^1,2^6,7-trimethyl-3-oxo-5^2,5^1-dihydro-1^1H,5^1H-11-oxa-4-aza-5(2,1)-benzo[d]imidazola-2(2,4)-pyridina-1(4,5)-pyrazolacycloundecaphane-5^6-yl)piperazin-1-yl)piperidin-1-yl)-2,6-difluorophenyl)piperidine-2,6-dione]
- DC50 (Del19/T790M/C797S EGFR): 2240 pM
- Dmax (%) (Del19/T790M/C797S EGFR): 76.83%
- DC50 (L858R/T790M/C797S EGFR): 3350 pM
- Dmax (L858R/T790M/C797S EGFR): 80.2%

Compound: Cc1cc2cc(n1)-c1cnn(C)c1OCCC[C@@H](C)CN1/C(=N/C2=O)Nc2ccc(C(=O)N(C)C3CCN(CC4CN(c5cc(F)c([C@H]6CCC(=O)NC6=O)c(F)c5)C4)CC3)cc21 [Example 286, (R,E)-N-(1-((1-(4-((R)-2,6-dioxopiperidin-3-yl)-3,5-difluorophenyl)azetidin-3-yl)methyl)piperidin-4-yl)-N,1^1,2^6,7-tetramethyl-3-oxo-5^2,5^3-dihydro-1^1H,5^1H-11-oxa-4-aza-5(2,1)-benzo[d]imidazola-2(2,4)-pyridina-1(4,5)-pyrazolacycloundecaphane-5^6-carboxamide]
- DC50 (Del19/T790M/C797S EGFR): 652 pM
- Dmax (%) (Del19/T790M/C797S EGFR): 72.5%
- DC50 (L858R/T790M/C797S EGFR): 450 pM
- Dmax (L858R/T790M/C797S EGFR): 91.2%

Compound: Cc1cc2cc(n1)-c1cnn(C)c1OCCC[C@@H](C)CN1/C(=N/C2=O)Nc2ccc(C(=O)N(C)[C@@H]3CCN(CCc4cc(F)c([C@H]5CCC(=O)NC5=O)c(F)c4)[C@H](C)C3)cc21 [Example 268, (R,E)-N—((2R,4R)-1-(4-((R)-2,6-dioxopiperidin-3-yl)-3,5-difluorophenethyl)-2-methylpiperidin-4-yl) -N,1^1,2^6,7-tetramethyl-3-oxo-5^2,5^3-dihydro-1^1H,5^1H-li-oxa-4-aza-5(2,1)-benzo[d]imidazola-2(2,4)-pyridina-1(4,5)-pyrazolacycloundecaphane-5^6-carboxamide]
- DC50 (Del19/T790M/C797S EGFR): 439 pM
- Dmax (%) (Del19/T790M/C797S EGFR): 81.98%
- DC50 (L858R/T790M/C797S EGFR): 530 pM
- Dmax (L858R/T790M/C797S EGFR): 89.8%

Compound: Cc1cc2cc(n1)-c1cnn(C)c1OCCC[C@@H](C)CN1/C(=N/C2=O)Nc2ccc(N3CCN(C4CCN(c5cc(F)c([C@H]6CCC(=O)NC6=O)c(F)c5)CC4)CC34CC4)cc21 [Example 418, (R)-3-(2,6-difluoro-4-(4-(4-((R,E)-1^1,2^6,7-trimethyl-3-oxo-5^2,5^3-dihydro-1^1H,5^1H-11-oxa-4-aza-5(2,1)-benzo[d]imidazola-2(2,4)-pyridina-1(4,5)-pyrazolacycloundecaphane-5^6-yl)-4,7-diazaspiro[2.5]octan-7-yl)piperidin-1-yl)phenyl)piperidine-2,6-dione]
- DC50 (Del19/T790M/C797S EGFR): 3200 pM
- Dmax (%) (Del19/T790M/C797S EGFR): 91.56%
- DC50 (L858R/T790M/C797S EGFR): 517 pM
- Dmax (L858R/T790M/C797S EGFR): 60.7%

Compound: Cc1cc2cc(n1)-c1cnn(C)c1OCCC[C@@H](C)CN1/C(=N/C2=O)Nc2ccc(C(=O)N[C@@H]3CCN(CCc4cc(F)c([C@H]5CCC(=O)NC5=O)c(F)c4)C[C@@H]3F)cc21 [Example 246, (R,E)-N-((3S,4R)-1-(4-((R)-2,6-dioxopiperidin-3-yl)-3,5-difluorophenethyl)-3-fluoropiperidin-4-yl)-1^1,2^6,7-trimethyl-3-oxo-5^2,5^3-dihydro-1^1H,5^1H-11-oxa-4-aza-5(2,1)-benzo[d]imidazola-2(2,4)-pyridina-1(4,5)-pyrazolacycloundecaphane-5^6-carboxamide]
- DC50 (Del19/T790M/C797S EGFR): 602 pM
- Dmax (%) (Del19/T790M/C797S EGFR): 85.73%
- DC50 (L858R/T790M/C797S EGFR): 613 pM
- Dmax (L858R/T790M/C797S EGFR): 93.8%

Compound: COC[C@@H]1CN(c2ccc3c(c2)N2C[C@H]4C[C@@H]4CCOc4c(cnn4C)-c4cc(cc(C)n4)C(=O)/N=C/2N3)CCN1C1CCN(c2cc(F)c([C@H]3CCC(=O)NC3=O)c(F)c2)CC1 [Example 468, (R)-3-(4-(4-((S)-4-((7'S,7^2R,E)-1^1,2^6-dimethyl-3-oxo-5^2,5^3-dihydro-1^1H,5^1H-10-oxa-4-aza-5(2,1)-benzo[d]imidazola-2(2,4)-pyridina-1(4,5)-pyrazola-7(1,2)-cyclopropanacyclodecaphane-5^6-yl)-2-(methoxymethyl)piperazin-1-yl)piperidin-1-yl)-2,6-difluorophenyl)piperidine-2,6-dione]
- DC50 (Del19/T790M/C797S EGFR): 2250 pM
- Dmax (%) (Del19/T790M/C797S EGFR): 85.54%
- DC50 (L858R/T790M/C797S EGFR): 2120 pM
- Dmax (L858R/T790M/C797S EGFR): 88.1%
